Test results: ChEMBL document CHEMBL1141551, “Discovery of novel PRL-3 inhibitors based on the structure-based virtual screening” (Bioorg Med Chem Lett, 2008)

Target: Protein tyrosine phosphatase type IVA 3 (Homo sapiens, UniProt O75365)
Assay: Inhibition of human PRL3 expressed in Escherichia coli BL21 (DE3)

Sequence of Protein tyrosine phosphatase type IVA 3 (O75365 whole entry): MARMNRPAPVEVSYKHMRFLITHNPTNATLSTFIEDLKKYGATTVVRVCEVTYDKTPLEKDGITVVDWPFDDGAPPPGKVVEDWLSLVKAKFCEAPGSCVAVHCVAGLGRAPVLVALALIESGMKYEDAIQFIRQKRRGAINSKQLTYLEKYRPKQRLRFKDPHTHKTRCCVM

IC50 [µM]	SMILES
44.7	COc1ccc(-n2nnnc2SCC(=O)c2ccc(O)c(O)c2)cc1
13.3	O=C1NC(=S)S/C1=C/c1ccc(-c2ccccc2C(=O)O)o1
28.1	O=C1NC(=O)/C(=C\c2cccn2-c2ccc(C(=O)O)cc2)N1
43.8	C=CCn1c(SCC(=O)c2ccc(O)c(O)c2)nnc1-c1cccc(Cl)c1
18.3	N#CC1=C(S)N(c2ccccc2)C(/C=C/c2ccc(-c3ccc(Cl)cc3)o2)NC1=O (stereo not given)
